These compounds were tested on mouse-derived macrophage-like cell line RAW264.7 (assay: Evaluation of NO production amount by Griess method). Conditions: general statement of effect; based on suppression of NO production by M1 macrophage.
Format: cell-based
Protocol: The mouse-derived macrophage-like cell line RAW264.7 was seeded in a 48 well plate 1×10^5 cells per well. After culture for 5 hr, Escherichia coli-derived lipopolysaccharide (LPS) was added to 100 ng/mL over 24 hr to activate RAW264.7 cells. Simultaneously with LPS, various compounds (No. 1-No. 17, LA, ALA) were added at 10 μM, and the concentration of […] (NO2^−), which is an oxide of nitric oxide (NO) produced by macrophage activation, in the culture medium was measured. The amount of NO2 in the culture medium was quantified by the Griess method and in reference to Shan Lin et al., Molecular Nutrition and Food Research 57 (2013) p 1135-1144, “Auraptene suppresses inflammatory responses in activated RAW264 macrophages by inhibiting p38 mitogen-activated protein kinase activation”, the section of Material and methods Measurements of TNF-α, MCP-1, and NO concentrations. The quantification was actually performed as follows. RAW264.7 culture medium treated with LPS and various compounds for 24 hr was recovered. 0.2% N-(1-naphthyl) ethylenediamine and 2% Sulfanilamide/10% H3PO4 were blended at 1:1 immediately before reaction to give a Griess reagent, RAW264.7 culture medium and the Griess reagent were mixed at 1:1 and reacted at room temperature for 10 min. After completion of the reaction, absorbance at 550 nm was measured. NaNO2 was used as the NO2^− standard product, and the NO2^− concentration in the culture medium was calculated. The concentration of the sample was adjusted with ethanol. Ethanol was used as a negative control, and BAY11-7082 (5 μM), which is a IκBα phosphorylation inhibitor, was used as a positive control.

Structure (SMILES)	anti-inflammatory action
CCCCC/C=C\CC(O)CCCCCCCCC(=O)O (stereo not drawn) [No. 4, 10-hydroxy-cis-12-octadecenoic acid]	have an anti-inflammatory action
CCCCC/C=C\CC(=O)CCCCCCCCC(=O)O [No. 6, 10-oxo-cis-12-octadecenoic acid]	have an anti-inflammatory action
CCCCCC(O)CC/C=C\CCCCCCCC(=O)O (stereo not drawn) [No. 14, 13-hydroxy-cis-9-octadecenoic acid]	have an anti-inflammatory action
CCCCCC(=O)CC/C=C\CCCCCCCC(=O)O [No. 15, 13-oxo-cis-9-octadecenoic acid]	have an anti-inflammatory action

Source: patent publication US12697318B2, “Anti-inflammatory agent containing rare fatty acid” (Noster Inc., priority 2014, dated 2026)
